According to patent US8288410B2, “3-substituted quinolinium and 7H-indolo[2,3-c]quinolinium salts as new antiinfectives” (Florida Agricultural and Mechanical University, priority 2008, dated 2012):
Read-outs that look alike come from different tables or passages of the source.

Legend:
[1] = tested on: Candida albicans ATTC 90028; experiment: Antifungal susceptibility testing, Candida albicans; type: cell-based
Method: (§1) Using standard susceptibility tests, the compounds of the invention were determined to be active against MRSA, C. neoformans and several other bacteria, fungi and protozoa. More specifically, the antibacterial and antifungal testing was carried out in the following manner. Cryptococcus neoformans ATCC 90113 and MRSA were obtained from the American Type Culture Collection (Manassas. Va.). Several others including Candida albicans ATTC 90028, Aspergillus fumigatus ATCC 90906 and Mycobacterium intracellulare (M. intracellulare) ATCC 23086 were also procured. Susceptibility testing was performed using a modified version of the National Committee for Clinical Laboratory Standards method. M. intracellulare was tested using a modified method of Franzblau, et al., J. Clin. Microbiol., 1998, 36, 362-366. DMSO solutions of samples were serially diluted in saline, and transferred in duplicate to 96 well microplates. Microbial suspensions were diluted in the broth to afford desired colony forming units/mL according to the 0.5 McFarland Standard [C. Albicans: either Saboraud Dextrose broth (SDB) or RPMI 1640, C. neoformans: SDB, A fumigatus: either YM broth (for MICS) or RPMI-1640+5% Alamar Blue.] After adding microbial cultures to the sampled afforded a final volume of 200 μL and final test concentration starting with 20 μg/mL, plates were read prior to and after final incubation using either fluorescence at 544ex/590em (M intracellulare, A. fumigatus) using the Polarstar galaxy reader (Biotek Instruments, Vermont). Growth (saline only), solvent and blank (media only) controls were included on each test plate. Drug controls [Ciprofloxacin (ICN Biomedicals, Ohio) for bacteria and Amphotericin B (ICN Biomedicals, Ohio) for fungi] were included in each assay. Percent growth was calculated and plotted versus test concentration to afford IC50 (sample concentration that affords 50% inhibition or growth of the organism). The minimum inhibitory concentration (MIC) was determined by visually inspecting the plate, and is defined as the lowest test concentration that allows no detectable growth (for Almar Blue assays, no color change from blue to pink).

[2] = tested on: Aspergillus fumigatus ATCC 90906; experiment: Antifungal susceptibility testing, Aspergillus fumigatus; type: cell-based
Method: as §1

MRSA = experiment: Antibacterial susceptibility testing, MRSA; type: cell-based, methicillin resistant Staphylococcus aureus; conditions: for MRSA IC50 / MRSA MFC / MRSA MIC: Table 2; for MRS IC50 / MRS MFC / MRS MIC: Table 1
Method: as §1

[3] = tested on: Cryptococcus neoformans ATCC 90113; experiment: Antifungal susceptibility testing, Cryptococcus neoformans; type: cell-based
Method: as §1

Compound | Ca IC50 ([1]; Table 1) | Ca MFC ([1]; Table 1) | Ca MIC ([1]; Table 1) | A fu IC50 ([2]; Table 1, Aspergillus fumigatus) | A fu MFC ([2]; Table 1, Aspergillus fumigatus) | A fu MIC ([2]; Table 1, Aspergillus fumigatus) | MRS IC50 (MRSA) | MRS MFC (MRSA) | MRS MIC (MRSA) | Cn IC50 ([3]; Table 1) | Cn MFC ([3]; Table 1) | Cn MIC ([3]; Table 1) | further results
C[n+]1cc(Nc2ccccc2Cl)cc2ccccc21.[I-] [JRE-2-42-1] |  |  |  |  |  |  |  |  |  |  |  |  | Ca IC50 ([1]; Table 2): — ((-) = >20 μg/mL); Ca MFC ([1]; Table 2): — ((-) = >20 μg/mL); Ca MIC ([1]; Table 2): — ((-) = >20 μg/mL); A fu IC50 ([2]; Table 2, Aspergillus fumigatus): — ((-) = >20 μg/mL); MRSA IC50 (MRSA): — ((-) = >20 μg/mL); MRSA MFC (MRSA): — ((-) = >20 μg/mL); MRSA MIC (MRSA): — ((-) = >20 μg/mL); Cn IC50 ([3]; Table 2): — ((-) = >20 μg/mL); Cn MFC ([3]; Table 2): — ((-) = >20 μg/mL); Cn MIC ([3]; Table 2): — ((-) = >20 μg/mL)
C[n+]1cc(Nc2cccc(Cl)c2)cc2ccccc21.[I-] [JRE-2-81-1] |  |  |  |  |  |  |  |  |  |  |  |  | Ca IC50 ([1]; Table 2): — ((-) = >20 μg/mL); Ca MFC ([1]; Table 2): — ((-) = >20 μg/mL); Ca MIC ([1]; Table 2): — ((-) = >20 μg/mL); A fu IC50 ([2]; Table 2, Aspergillus fumigatus): — ((-) = >20 μg/mL); MRSA IC50 (MRSA): — ((-) = >20 μg/mL); MRSA MFC (MRSA): — ((-) = >20 μg/mL); MRSA MIC (MRSA): — ((-) = >20 μg/mL); Cn IC50 ([3]; Table 2): — ((-) = >20 μg/mL); Cn MFC ([3]; Table 2): — ((-) = >20 μg/mL); Cn MIC ([3]; Table 2): — ((-) = >20 μg/mL)
c1ccc(Nc2cc3ccccc3[n+](CCCCCC3CCCCC3)c2)cc1 [JRE-3-19-1] |  |  |  |  |  |  |  |  |  |  |  |  | IC50 ([1]; ATTC90028, Table 2, read-out: Ca IC50): 1 µg/mL; MFC ([1]; ATTC90028, Table 2, read-out: Ca MFC): 13 µg/mL; MIC ([1]; ATTC90028, Table 2, read-out: Ca MIC): 3.1 µg/mL; A fu MFC [2]: 25 µg/mL; A fu MIC [2]: 1.6 µg/mL; IC50 ([2]; ATCC90906, Table 2, Aspergillus fumigatus, read-out: A fu IC50): 1 µg/mL; IC50 (MRSA; Staphylococcus aureus, Table 2, read-out: MRSA IC50): 0.85 µg/mL; MFC (MRSA; Staphylococcus aureus, Table 2, read-out: MRSA MFC): 6.3 µg/mL; MIC (MRSA; Staphylococcus aureus, Table 2, read-out: MRSA MIC): 1.6 µg/mL; IC50 ([3]; ATCC90113, Table 2, read-out: Cn IC50): 0.55 µg/mL; MFC ([3]; ATCC90113, Table 2, read-out: Cn MFC): 6.3 µg/mL; MIC ([3]; ATCC90113, Table 2, read-out: Cn MIC): 0.78 µg/mL
COc1ccc(Nc2cc3ccccc3[n+](CCCCCC3CCCCC3)c2)cc1.[I-] [JRE-3-45-1] |  |  |  |  |  |  |  |  |  |  |  |  | Ca IC50 ([1]; Table 2): — ((-) = >20 μg/mL); Ca MFC ([1]; Table 2): — ((-) = >20 μg/mL); Ca MIC ([1]; Table 2): — ((-) = >20 μg/mL); A fu IC50 ([2]; Table 2, Aspergillus fumigatus): — ((-) = >20 μg/mL); MRSA IC50 (MRSA): — ((-) = >20 μg/mL); MRSA MFC (MRSA): — ((-) = >20 μg/mL); MRSA MIC (MRSA): — ((-) = >20 μg/mL); Cn IC50 ([3]; Table 2): — ((-) = >20 μg/mL); Cn MFC ([3]; Table 2): — ((-) = >20 μg/mL); Cn MIC ([3]; Table 2): — ((-) = >20 μg/mL)
C[n+]1cc(Sc2ccccc2)cc2ccccc21.[I-] [XYZ-III-53] | — ((-) = >20 μg/mL) | — ((-) = >20 μg/mL) | — ((-) = >20 μg/mL) | — ((-) = >20 μg/mL) | — ((-) = >20 μg/mL) | — ((-) = >20 μg/mL) | — ((-) = >20 μg/mL) | — ((-) = >20 μg/mL) | — ((-) = >20 μg/mL) | — ((-) = >20 μg/mL) | — ((-) = >20 μg/mL) | — ((-) = >20 μg/mL) | 
[I-].c1ccc(CCCCC[n+]2cc(Sc3ccccc3)cc3ccccc32)cc1 [XYZ-III-54] | 5.5 µg/mL | — ((-) = >20 μg/mL) | 10 µg/mL | 1.3 µg/mL | — ((-) = >20 μg/mL) |  | 1.0 µg/mL | 10 µg/mL | 2.5 µg/mL |  | 10 µg/mL | 5.0 µg/mL | 
C[n+]1cc(Sc2ccc(F)cc2)cc2ccccc21.[I-] [XYZ-III-62] | — ((-) = >20 μg/mL) | — ((-) = >20 μg/mL) | — ((-) = >20 μg/mL) | — ((-) = >20 μg/mL) | — ((-) = >20 μg/mL) | — ((-) = >20 μg/mL) | — ((-) = >20 μg/mL) | — ((-) = >20 μg/mL) | — ((-) = >20 μg/mL) | — ((-) = >20 μg/mL) | — ((-) = >20 μg/mL) | — ((-) = >20 μg/mL) | 
Fc1ccc(Sc2cc3ccccc3[n+](CCCCCc3ccccc3)c2)cc1.[I-] [XYZ-III-63] | 20 µg/mL | — ((-) = >20 μg/mL) | — ((-) = >20 μg/mL) |  | — ((-) = >20 μg/mL) |  | 5.5 µg/mL | — ((-) = >20 μg/mL) | 10 µg/mL | 7.0 µg/mL | — ((-) = >20 μg/mL) | — ((-) = >20 μg/mL) | 
C[n+]1cc(Sc2ccc(C(F)(F)F)cc2)cc2ccccc21.[I-] [XYZ-III-65] | — ((-) = >20 μg/mL) | — ((-) = >20 μg/mL) | — ((-) = >20 μg/mL) | — ((-) = >20 μg/mL) | — ((-) = >20 μg/mL) | — ((-) = >20 μg/mL) | — ((-) = >20 μg/mL) | — ((-) = >20 μg/mL) | — ((-) = >20 μg/mL) | — ((-) = >20 μg/mL) | — ((-) = >20 μg/mL) | — ((-) = >20 μg/mL) | 
COc1ccc(Sc2cc3ccccc3[n+](C)c2)cc1.[I-] [XYZ-III-71] | — ((-) = >20 μg/mL) | — ((-) = >20 μg/mL) | — ((-) = >20 μg/mL) | — ((-) = >20 μg/mL) | — ((-) = >20 μg/mL) | — ((-) = >20 μg/mL) | — ((-) = >20 μg/mL) | — ((-) = >20 μg/mL) | — ((-) = >20 μg/mL) | — ((-) = >20 μg/mL) | — ((-) = >20 μg/mL) | — ((-) = >20 μg/mL) | 
COc1ccc(Sc2cc3ccccc3[n+](CCCCCc3ccccc3)c2)cc1.[I-] [XYZ-III-72] | — ((-) = >20 μg/mL) | — ((-) = >20 μg/mL) | — ((-) = >20 μg/mL) | 3.5 µg/mL | — ((-) = >20 μg/mL) | 10 µg/mL | 2.0 µg/mL | 10 µg/mL | 5.0 µg/mL | 9.5 µg/mL | — ((-) = >20 μg/mL) | 20 µg/mL | 
Clc1ccccc1Sc1cc2ccccc2[n+](CCCCCc2ccccc2)c1.[I-] [XYZ-III-74] | — ((-) = >20 μg/mL) | — ((-) = >20 μg/mL) | — ((-) = >20 μg/mL) | 0.70 µg/mL | — ((-) = >20 μg/mL) | 2.5 µg/mL | 1.0 µg/mL | 10 µg/mL | 2.5 µg/mL | 2.0 µg/mL | 20 µg/mL | 5.0 µg/mL | 
